Here are results for 5 molecules from publication PMC8341974 (RSC Chemical Biology, 2021).

Some results are limits rather than exact numbers.

Series [1] has as its target T1, SIRT2 (Homo sapiens, UniProt Q8IXJ6).
T1 sequence (Q8IXJ6 50-356): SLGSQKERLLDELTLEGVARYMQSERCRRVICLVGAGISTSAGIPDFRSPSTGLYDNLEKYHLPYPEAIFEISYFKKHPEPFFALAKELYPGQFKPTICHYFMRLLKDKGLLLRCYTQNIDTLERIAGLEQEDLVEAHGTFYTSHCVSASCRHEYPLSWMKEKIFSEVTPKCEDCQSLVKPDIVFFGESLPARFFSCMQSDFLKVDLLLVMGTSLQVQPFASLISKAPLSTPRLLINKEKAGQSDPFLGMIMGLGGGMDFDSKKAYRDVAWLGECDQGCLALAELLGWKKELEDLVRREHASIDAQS
The series is described as follows: biochemical. It is filed as biochemical. The conditions noted are these: for %inhibition SIRT2, QPKKac: 100 µM inhibitor, QPKKac 50 µM, NI = no inhibition.

A further series concerns the target T2, SIRT1 (Homo sapiens, UniProt Q96EB6).
T2 sequence (Q96EB6 193-741): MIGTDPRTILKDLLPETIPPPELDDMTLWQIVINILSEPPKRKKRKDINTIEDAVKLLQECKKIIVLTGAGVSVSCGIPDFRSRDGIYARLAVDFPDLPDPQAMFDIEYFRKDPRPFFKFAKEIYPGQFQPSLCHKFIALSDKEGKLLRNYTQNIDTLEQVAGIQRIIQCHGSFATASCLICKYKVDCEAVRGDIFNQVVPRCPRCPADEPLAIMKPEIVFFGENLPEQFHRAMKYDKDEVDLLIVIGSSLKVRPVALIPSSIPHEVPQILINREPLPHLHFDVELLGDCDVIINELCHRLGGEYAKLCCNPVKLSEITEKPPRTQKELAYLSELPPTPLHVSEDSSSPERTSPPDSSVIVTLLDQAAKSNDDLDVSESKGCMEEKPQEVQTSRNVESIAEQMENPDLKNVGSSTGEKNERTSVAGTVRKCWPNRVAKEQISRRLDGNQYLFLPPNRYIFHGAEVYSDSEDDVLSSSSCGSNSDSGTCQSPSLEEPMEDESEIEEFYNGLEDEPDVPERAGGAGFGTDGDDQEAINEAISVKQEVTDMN
Description: End-point SIRT1 deacetylation inhibition assay. The series is classed as biochemical.

The target in a further series is T3, SIRT3 (Homo sapiens, UniProt Q9NTG7).
T3 sequence (Q9NTG7 102-399): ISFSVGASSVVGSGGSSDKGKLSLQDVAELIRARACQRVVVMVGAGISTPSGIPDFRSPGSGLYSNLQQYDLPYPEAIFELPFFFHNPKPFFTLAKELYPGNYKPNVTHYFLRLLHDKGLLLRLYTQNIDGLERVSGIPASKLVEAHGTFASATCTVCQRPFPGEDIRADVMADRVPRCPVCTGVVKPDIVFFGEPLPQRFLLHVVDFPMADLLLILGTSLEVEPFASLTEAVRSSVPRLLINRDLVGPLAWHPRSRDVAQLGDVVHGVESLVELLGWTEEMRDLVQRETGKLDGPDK
The series is described as follows: biochemical. The series is classed as biochemical.

A further series has as its target SIRT6 (Homo sapiens, UniProt Q8N6T7). Description: End-point SIRT6 inhibition assay. It is filed as biochemical. The following applies: 10 µM inhibitor; SIRT6 600 nM; ETDKmyr 50 µM as substrate; NI = no inhibition.
Series [2] concerns the target T1, SIRT2. The series is described as follows: Continuous trypsin-coupled SIRT2 inhibition assay. The series is classed as biochemical. The conditions noted are these: from dependence of kobs on inhibitor concentration.
The nature of series [3]: Serum stability in human male serum. The conditions noted are these: 37 °C, up to 24 h. The series is classed as in vitro ADME.
In series [4] the test system is acetylated α-tubulin in MCF-7 cells. The series is described as follows: Immunofluorescence of acetylated α-tubulin in MCF-7 cells. The series is classed as cell-based, human. The following applies: MCF-7, 6 h; 26 5 μM, 26-D 25 μM, TSA 5 μM.

SIRT6, sequence (Q8N6T7 whole entry): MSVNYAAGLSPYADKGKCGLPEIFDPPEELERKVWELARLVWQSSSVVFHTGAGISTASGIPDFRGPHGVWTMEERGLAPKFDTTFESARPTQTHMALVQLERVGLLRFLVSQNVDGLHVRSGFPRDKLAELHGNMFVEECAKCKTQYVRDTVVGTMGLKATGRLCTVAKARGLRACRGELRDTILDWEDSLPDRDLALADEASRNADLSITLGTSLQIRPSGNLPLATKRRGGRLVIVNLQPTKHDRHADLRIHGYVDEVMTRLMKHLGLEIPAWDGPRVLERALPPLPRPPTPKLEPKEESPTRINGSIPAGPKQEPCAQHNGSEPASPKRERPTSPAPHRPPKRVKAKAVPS

`CCCCCCCCCCCCCC(=O)NNCCC[C@H](NC(=O)OCc1ccccc1)C(=O)N[C@@H](Cc1c[nH]c2ccccc12)C(=O)NC(C)C` [Compound 4]: the “%inhibition SIRT2, QPKKac” value at SIRT2 [1] is listed as “only limited inhibition”.

For the molecule `CCCCCCCCCCCCNC(=O)CCCCC[C@H](NC(=O)OCc1ccccc1)C(=O)N[C@@H](Cc1c[nH]c2ccccc12)C(=O)NC(C)C` [Compound 5], on SIRT2 [1], the “%inhibition SIRT2, QPKKac” value is on record as “only limited inhibition”.

`CCCCCCCCCCCCNC(=S)NCCCC[C@H](NS(C)(=O)=O)C(=O)N[C@@H](C)C(=O)N[C@@H](CCCNC(=N)N)C(N)=O` [Compound 25]: the 50% inhibitory concentration (IC50) at SIRT1 is 370 ± 70 nM; against SIRT2 [1] (IC50 SIRT2, QPKKac, given as class word, QPKKac 50 μM, NAD+ 500 μM, SIRT2 100 nM) it was less than 100 nM; on SIRT3, 1900 ± 300 nM. The “%-inhibition SIRT6” value at SIRT6 is “did not inhibit”. The “mechanism of slow-binding inhibition” value on SIRT2 [2] is “mechanism B”. Besides, in series [3], the “degradation in human serum (in words)” value was “almost fully degraded in less than two hours”.

Turning to `CC(/C=C/C(=O)NO)=C\[C@@H](C)C(=O)c1ccc(N(C)C)cc1` [TSA, Trichostatin A], in series [4], the “acetylated α-tubulin level by immunofluorescence (in words)” value was “hyperacetylation of α-tubulin throughout the entire cell”.

For the molecule `CN(C)CCCCC(=O)Nc1ccc(NC(=S)NC(=O)c2ccc(C(C)(C)C)cc2)cc1` [Tenovin-6, reference compound], the “%inhibition SIRT3, QPKKac” value at SIRT3 (100 µM inhibitor, QPKKac 50 µM, NI = no inhibition) is less than 50% [100 μM]. In addition, the “degradation in human serum (in words)” value in series [3] is “rapidly degraded”.
